Laboratory results published in the supplement of paper PMC10331698.
± gives the standard deviation of the averaged measurements.

How the values were obtained:
Experiment in all cases: level (log10 ratio to DMSO vehicle control); higher = higher biomarker level / cell amount than vehicle control
Perfluoroundecanoic acid = compound: O=C(O)C(F)(F)C(F)(F)C(F)(F)C(F)(F)C(F)(F)C(F)(F)C(F)(F)C(F)(F)C(F)(F)C(F)(F)F [Perfluoroundecanoic acid] (in DMSO); conditions: 6700 nM
Protocol: (§1)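 BioMAP Diversity Plus panel of 12 human primary cell co-culture systems (3C, 4H, LPS, SAg, BT, BF4T, BE3C, CASM3C, HDF3CGF, KF3CT, MyoF, Mphg). Compounds were added 1 h before stimulation and left for 24 h (MyoF 48 h; BT 72 h for soluble read-outs or 6 d for IgG). Biomarkers were read by ELISA, cytotoxicity by SRB, PBMC viability and proliferation by Alamar Blue. Each well value was divided by the mean of 8 DMSO control wells on the same plate and log10 transformed; duplicate blinded samples were tested at 4 concentrations.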

[1] = compound: CO[Si](C)(CCC(F)(F)C(F)(F)C(F)(F)C(F)(F)C(F)(F)C(F)(F)F)OC [Dimethoxymethyl((perfluorohexyl)ethyl)silane] (in DMSO)
Protocol: as §1

[2] = compound: O=S(=O)(O)CCC(F)(F)C(F)(F)C(F)(F)C(F)(F)C(F)(F)C(F)(F)C(F)(F)C(F)(F)F [8:2 Fluorotelomer sulfonic acid] (in DMSO)
Protocol: as §1

[3] = compound: NS(=O)(=O)C(F)(F)C(F)(F)C(F)(F)C(F)(F)C(F)(F)C(F)(F)C(F)(F)C(F)(F)F [Perfluorooctanesulfonamide] (in DMSO)
Protocol: as §1

[4] = compound: O=C(O)C(F)(F)C(F)(F)C(F)(F)OC(F)(F)F [Perfluoro(4-methoxybutanoic) acid] (in DMSO)
Protocol: as §1

[5] = compound: O=S(=O)(O)C(F)(F)C(F)(F)C(F)(F)C(F)(F)C(F)(F)C(F)(F)C(F)(F)F [Perfluoroheptanesulfonic acid] (in DMSO)
Protocol: as §1

[6] = compound: O=C(O)C=C(C(F)(F)F)C(F)(F)F [3,3-Bis(trifluoromethyl)-2-propenoic acid] (in DMSO)
Protocol: as §1

Test System | level (log10) (Perfluoroundecanoic acid) | level (log10) ([1]; 6700 nM) | level (log10) ([1]; 20000 nM) | level (log10) ([2]; 6700 nM) | level (log10) ([2]; 20000 nM) | level (log10) ([2]; 60000 nM) | level (log10) ([3]; 6700 nM) | level (log10) ([3]; 20000 nM) | level (log10) ([4]; 6700 nM) | level (log10) ([4]; 20000 nM) | level (log10) ([4]; 60000 nM) | level (log10) ([5]; 1500 nM) | level (log10) ([5]; 4400 nM) | level (log10) ([5]; 13000 nM) | level (log10) ([5]; 40000 nM) | level (log10) ([6]; 6700 nM) | level (log10) ([6]; 20000 nM) | level (log10) ([6]; 60000 nM)
CASM3C:M-CSF | 0.019 ± 0.0085 | -0.012 ± 0.013 | 0.0045 ± 0.043 | 0.0005 ± 0.015 | -0.0115 ± 0.0021 | 0.037 ± 0.028 | 0.022 | 0.04 ± 0.0099 | -0.027 ± 0.021 | -0.035 ± 0.021 | 0.029 ± 0.034 | -0.0215 ± 0.0021 | -0.0305 ± 0.0035 | -0.039 ± 0.028 | -0.02 ± 0.047 | -0.0435 ± 0.0035 | -0.044 ± 0.02 | -0.068 ± 0.033
lMphg:SRB-Mphg | -0.019 ± 0.016 | 0.0195 ± 0.0021 | 0.0295 ± 0.0021 | 0.003 ± 0.0028 | -0.012 ± 0.014 | -0.027 ± 0.013 | -0.0005 ± 0.0064 | -0.027 ± 0.016 | -0.013 ± 0.02 | 0.0125 ± 0.012 | 0.0115 ± 0.0021 | -0.0005 ± 0.016 | -0.0025 ± 0.036 | 0.002 ± 0.0099 | -0.0005 ± 0.036 | -0.032 | -0.017 ± 0.014 | 0.0035 ± 0.012
MyoF:CD106/VCAM-1 | -0.079 ± 0.018 | 0.003 ± 0.0042 | -0.008 ± 0.018 | -0.0035 ± 0.0021 | -0.0325 ± 0.016 | -0.084 ± 0.02 | -0.005 ± 0.023 | -0.293 ± 0.088 | -0.0175 ± 0.0021 | -0.0205 ± 0.0092 | -0.018 ± 0.016 | -0.01 ± 0.0057 | -0.0015 ± 0.005 | -0.0055 ± 0.015 | 0.0145 ± 0.0021 | -0.0825 ± 0.00071 | -0.145 ± 0.0021 | -0.291 ± 0.04
BE3C:tPA | 0.003 ± 0.0028 | 0.0005 ± 0.026 | -0.026 ± 0.037 | 0.0755 ± 0.021 | 0.0535 ± 0.0064 | -0.021 ± 0.0099 | 0.0025 ± 0.035 | -0.058 ± 0.055 | 0.002 ± 0.023 | -0.0065 ± 0.011 | -0.0015 ± 0.016 | 0.023 ± 0.041 | 0.0415 ± 0.073 | 0.066 ± 0.1 | 0.0595 ± 0.086 | -0.16 ± 0.041 | -0.166 ± 0.0042 | -0.179 ± 0.073
lMphg:CCL3/MIP-1alpha | -0.004 ± 0.023 | -0.012 ± 0.0099 | 0.0065 ± 0.023 | 0.0035 ± 0.03 | 0.0095 ± 0.026 | 0.0065 ± 0.032 | -0.003 ± 0.016 | 0.023 ± 0.0099 | -0.0355 ± 0.035 | -0.038 ± 0.024 | -0.015 ± 0.021 | -0.04 ± 0.0071 | -0.0135 ± 0.047 | -0.0225 ± 0.064 | -0.014 ± 0.037 | -0.0065 ± 0.071 | -0.0015 ± 0.023 | -0.0075 ± 0.016
lMphg:CD40 | -0.008 ± 0.018 | -0.006 ± 0.0014 | -0.012 ± 0.013 | -0.026 ± 0.023 | -0.052 ± 0.0028 | -0.0995 ± 0.019 | -0.0365 ± 0.016 | -0.0925 ± 0.0092 | -0.014 ± 0.024 | -0.027 ± 0.033 | -0.0375 ± 0.03 | -0.034 ± 0.021 | -0.007 ± 0.034 | -0.0285 ± 0.043 | -0.0525 ± 0.028 | -0.0255 ± 0.00071 | -0.0545 ± 0.0035 | -0.071 ± 0.014
BE3C:SRB | -0.0555 ± 0.012 | -0.0035 ± 0.0035 | -0.003 ± 0.0042 | -0.007 ± 0.0071 | -0.017 | -0.025 ± 0.0085 | -0.0145 ± 0.0021 | -0.0315 ± 0.00071 | 0.0015 ± 0.0021 | 0.0005 ± 0.0078 | 0.003 ± 0.0099 | 0.015 ± 0.014 | -0.005 ± 0.0099 | -0.0005 ± 0.0021 | -0.0055 ± 0.0064 | -0.005 ± 0.0042 | -0.0025 ± 0.0035 | 0.01 ± 0.0057
